According to publication PMC7332481, “Ecotoxicity screening evaluation of selected pharmaceuticals and their transformation products towards various organisms” (Environmental Science and Pollution Research International, 2020):
Values after ≈ are worked out from the molar mass of the structure shown.

Assays:
Vibrio fischeri = test: microbe, parasite or virus in culture; assay type: cell-based; settings: for inhibition at 10 µg/mL: concentration 10 mg L^−1; for EC50: 0.5 h, read-out: EC50 V. fischeri (with confidence interval 2.5–97.5%); for inhibition at 100 µg/mL: concentration 100 mg L^−1
Experimental: (§1) Stock solutions and dilutions were prepared in 2% NaCl in 0.02 M phosphate buffer, pH 7. The freeze-dried bacteria were rehydrated prior to testing in a reactivation solution. Culture suspensions and diluted samples were pre-incubated at 15 °C for 15 min. After the initial luminescence was measured, 0.5 mL of the culture suspension was mixed with the same volume of a diluted sample. The final bioluminescence was measured after 30 min. Incubation was kept at 15 °C (LUMIStox 300 meter, Dr. Lange GmbH, Berlin, Germany). The relative toxicity of the samples was expressed as a percentage of luminescence inhibition compared to the controls.
as §1, with “m,” for “meter,”

Arthrobacter globiformis = test: A. globiformis dehydrogenase inhibition test (version without soil); settings: for EC50: read-out: EC50 A. globiformis
Experimental: (§2) All tests were carried out in accordance with the OECD or ISO guidelines. In general the experimental part was divided into three main steps: (i) determination of the toxicity of the native forms of pharmaceuticals (their racemic mixtures), (ii) toxicity evaluation of the selected TPs of these pharmaceuticals, and (iii) preliminary toxicity assessment of the enantiomers of selected pharmaceuticals. For each assay, range-finding tests were conducted, in order to determine the range of concentrations for the definitive tests. The main tests were repeated three times in at least two parallel replicates, with a minimum of five concentrations for native forms of the selected pharmaceuticals (including their enantiomers). The exact number of replicates and concentrations tested was included in the description of each test. […] However, TPs were tested in a different manner; first, the tests were carried out at the limit concentration of 100 mg L^−1. […] Such approach was applied in order to observe the relative toxicity of the selected TP and its native form.
The test strain was obtained from the German Collection of Microorganisms (DSMZ). A version of the test without soil was performed. Bacteria was grown in a sterile medium containing 10 g L^−1 peptone from casein, 5 g L^−1 yeast extract, 5 g L^−1 glucose, and 5 g L^−1 NaCl. For the test, the medium was diluted in a ratio of 1:3 in water. The inoculum was the bacteria in a log-growth phase. Cell density was adjusted to 1 × 10^8 cells mL^−1, which corresponds to an optical density (OD600nm) of 0.4. The test was performed in 24-well microplates. Each well contained 1 mL of solution of the tested compound in water and 1 mL of bacterial inoculum. Next, the plates were incubated for 2 h at 30 °C on a horizontal shaker with a speed of 100 rpm. To each well, a portion of 0.6 mL of the redox active dye resazurine (45 mg L^−1) dissolved in buffer was added. The microplates were further incubated for 1 h (30 °C, 100 rpm). To stop the reduction process, the plates were centrifuged at 3600g for 10 min. Aliquots (300 μl) of supernatant from each well were immediately transferred to the wells of a 96-well microplate in triplicates. Finally, the dehydrogenase activity was determined by measuring the formation of resorufin from resazurine using a fluorimeter ([…]). Dehydrogenase inhibition was calculated using Eq. 1.
where FBTS is the measured fluorescence of the blank (medium) with the tested substance, FTS is the measured fluorescence of the sample, FBNC is the measured fluorescence of the blank, and FNC is the measured fluorescence of the negative control (with bacteria).

Raphidocelis subcapitata = test: R. subcapitata reproduction (growth) inhibition test; assay type: cell-based; settings: for EC50: read-out: EC50 R. subcapitata (with confidence interval 2.5–97.5%)
Experimental: as §2
(§3) Dose-response curves were fitted using a linear logistic or logistic model (the model giving the best fit was chosen) (https://cran.r-project.org/web/packages/drfit/drfit.pdf). The mathematic formulas applied for this purpose are presented and described in the Supplementary Material. The EC50 values were given since log EC50 is a model parameter in the logistic as well as in linear logistic model.
Test organisms were provided from Algal Culture Collection (Universität Göttingen, Germany). […] The light-dark cycle was different from the OECD guidelines, and it was introduced to imitate natural growth conditions. In order to ensure that the algae are in the exponential growth phase when used to inoculate the test solutions, the stock culture was diluted three times a week. The test was carried out in 25 mL suspension cell culture flasks (Nunc) (working volume 10 mL). All operations were performed under sterile conditions. The initial cell concentration was 5 × 10^4 cells mL^−1. Eight different concentrations of every compound in three replicates and a minimum of six controls were used in each test. […] The test flasks were incubated on a shaker with a speed of approx. 75 rpm at the temperature and light conditions described above. Growth inhibition was calculated using the cell counts of the treated samples in relation to the untreated controls after 72 h of exposure. The cells were counted with the use of CASY TT Cell counter & analyzer.

Lemna minor = test: L. minor growth inhibition test; settings: for EC50: 168 h, read-out: EC50 L. minor (with confidence interval 2.5–97.5%), growth rate inhibition by frond area, 7 days
Experimental: as §2, §3
One week before the assay, the inoculum cultures were prepared; eight healthy plants were placed into a new portion of the medium. Two days before the test, the plants were transferred to a fresh medium, in order to supplement nutrients and to eliminate plant metabolites. The experiments were performed in six-well plates under the conditions described above. The pH value of the Steinberg medium and all solutions was 5.5 (± 0.5). Every test included six different concentrations of compound and six controls in three replicates. The test started with one plant consisting of three fronds and the measured endpoint was the inhibition of growth rate determined by comparing the frond area (mm^2) for the treated plants and untreated controls.

Daphnia magna = test: D. magna acute immobilization test; assay type: in vivo; settings: for EC50: read-out: EC50 D. magna (with confidence interval 2.5–97.5%); for mortality at 100 µg/mL: concentration 100 mg L^−1; for mortality at 50 µg/mL: concentration 50 mg L^−1
Experimental: as §2, §3
Five pre-fed test organisms were incubated with the studied compounds diluted in 10 mL of test media in glass test vessels at 20 °C (± 1 °C) in darkness for 48 h. Each test consisted of a control and five different concentrations of the studied compound in four parallel replicates. In order to achieve a full dose-response relationship, the concentration series covered the range of 0–100% immobilization. The number of immobilized or dead organisms was checked after 24 and 48 h. The negative effect of exposure to the tested compounds was expressed by the number of immobilized organisms compared to the controls.

aquatic organisms = settings: for the organisms named in the sentence
[1] = Aliivibrio fischeri, read-out: Luminescence inhibition
[2] = Lemna minor, read-out: Growth inhibition of L. minor
[3] = Aliivibrio fischeri, luminescence inhibition, 30 min, 15 °C
[4] = Daphnia magna, immobilization, 48 h
[5] = Raphidocelis subcapitata, 72 h, growth inhibition by cell counts, 72 h
[6] = Raphidocelis subcapitata, concentration 100 mg L^−1, read-out: Growth inhibition of R. subcapitata

For `O=C(O)Cc1ccccc1Nc1c(Cl)cc(O)cc1Cl` [4-OH-DIC, 4☒Hydroxydiclofenac], the inhibition at 10 µg/mL (Vibrio fischeri; [1]) was 38%, the inhibition at 100 µg/mL (Arthrobacter globiformis; read-out: inhibition of bacterial growth (A. globiformis)) was 14% and the inhibition at 50 µg/mL (Raphidocelis subcapitata; Raphidocelis subcapitata, concentration 50 mg L^−1) was 45%. The inhibition at 15 µg/mL (Lemna minor; [2]) was 0% and the mortality at 60 µg/mL (Daphnia magna; Daphnia magna, concentration 60 mg L^−1) was 8%.
Work on `Cc1cc(NS(=O)(=O)c2ccc(N)cc2)no1` [SMZ, Sulfamethoxazole] yielded an EC50 (Vibrio fischeri; [3]) of 51.8 µg/mL (≈ 204 µM), an inhibition at 50 µg/mL (Vibrio fischeri; Aliivibrio fischeri, concentration 50 mg L^−1, read-out: Luminescence inhibition) of 46% and an EC50 (Arthrobacter globiformis) of over 100 µg/mL. The inhibition at 5 µg/mL (Raphidocelis subcapitata; Raphidocelis subcapitata, concentration 5 mg L^−1, read-out: Growth inhibition of R. subcapitata) was 43%, the “classification on the basis of EC50 values (EC 93/67/EEC)” value (aquatic organisms) was “toxic to aquatic organisms (1–10 mg L^−1 are “toxic to aquatic organisms”)” and the inhibition at 3 µg/mL (Lemna minor; [2]) was 49%. It also gave a mortality at 40 µg/mL (Daphnia magna; Daphnia magna, concentration 40 mg L^−1, read-out: Immobilization) of 48% and an EC50 (Daphnia magna; [4]) of 42.7 µg/mL (≈ 169 µM).
With `COc1ccc2cc([C@@H](C)C(=O)O)ccc2c1` (single isomer, unassigned) [NAP Isomer R, R-naproxen] the “EC50 V. fischeri (with confidence interval 2.5–97.5%)” value (Vibrio fischeri; luminescence inhibition, 30 min, 15 °C) was 7.53 (7.11–7.99) mg L^−1, the “EC50 R. subcapitata (with confidence interval 2.5–97.5%)” value (Raphidocelis subcapitata; growth inhibition by cell counts, 72 h) was 21.08 (19.64–22.59) mg L^−1 and the “EC50 L. minor (with confidence interval 2.5–97.5%)” value (Lemna minor; growth rate inhibition by frond area, 7 days) was 22.37 (20.76–24.04) mg L^−1. For the same compound, the “EC50 D. magna (with confidence interval 2.5–97.5%)” value (Daphnia magna; immobilization, 48 h) was 97.35 (91.90–104.95) mg L^−1.
`NC(=O)N1c2ccccc2C=Cc2ccccc21` [CRB, Carbamazepine] showed an EC50 (Vibrio fischeri; [3]) of over 100 µg/mL, an inhibition at 100 µg/mL (Vibrio fischeri; [1]) of 42% and an EC50 (Arthrobacter globiformis) of over 100 µg/mL. The EC50 (Raphidocelis subcapitata; [5]) was over 100 µg/mL, the inhibition at 100 µg/mL (Raphidocelis subcapitata; [6]) was 49% and the “Growth inhibition of R. subcapitata” value (Raphidocelis subcapitata; concentration 100 mg L^−1) was 48%. The EC50 (Lemna minor; Lemna minor) was 50.2 µg/mL (≈ 212 µM), the inhibition at 50 µg/mL (Lemna minor; [2]) was 49% and the mortality at 100 µg/mL (Daphnia magna; Daphnia magna) was 24%. It also gave an EC50 (Daphnia magna; [4]) of over 100 µg/mL.
Work on `CC(Cc1ccc(C(C)C(=O)O)cc1)C(=O)O` (centres unmarked) [CBX-IBU, Carboxyibuprofen] yielded an inhibition at 10 µg/mL (Vibrio fischeri; [1]) of 2%, an inhibition at 100 µg/mL (Raphidocelis subcapitata; [6]) of 14% and an inhibition at 15 µg/mL (Lemna minor; [2]) of 6%. For the same compound, the mortality at 50 µg/mL (Daphnia magna; Daphnia magna) was 8%.
`CC(C(=O)O)c1ccc2cc(O)ccc2c1` (centres unmarked) [O-DES-NAP, O-Desmethylnaproxen] gave an inhibition at 25 µg/mL (Vibrio fischeri; Aliivibrio fischeri, concentration 25 mg L^−1, read-out: Luminescence inhibition) of 20% and a mortality at 70 µg/mL (Daphnia magna; Daphnia magna, concentration 70 mg L^−1, read-out: Immobilization) of 0%.
Work on `COCCc1ccc(OCC(O)CNC(C)C)cc1` (centres unmarked) [MET, Metoprolol] yielded an EC50 (Vibrio fischeri; [3]) of over 100 µg/mL, an inhibition at 100 µg/mL (Vibrio fischeri; [1]) of 3% and an EC50 (Arthrobacter globiformis) of over 100 µg/mL. It also gave an EC50 (Raphidocelis subcapitata; [5]) of 35.6 µg/mL (≈ 133 µM), an inhibition at 100 µg/mL (Raphidocelis subcapitata; [6]) of 90% and an EC50 (Lemna minor; Lemna minor) of over 100 µg/mL. For the same compound, the inhibition at 100 µg/mL (Lemna minor; [2]) was 5%, the mortality at 100 µg/mL (Daphnia magna; Daphnia magna) was 4% and the EC50 (Daphnia magna; [4]) was over 100 µg/mL.
`CC(C)Cc1ccc(C(C)C(=O)O)cc1` (centres unmarked) [IBU, Ibuprofen] gave an inhibition at 10 µg/mL (Vibrio fischeri; [1]) of 42%, an EC50 (Arthrobacter globiformis) of over 100 µg/mL and an EC50 (Raphidocelis subcapitata; [5]) of 93.3 µg/mL (≈ 452 µM). It also gave an inhibition at 100 µg/mL (Raphidocelis subcapitata; [6]) of 52%, an EC50 (Lemna minor; Lemna minor) of 13.2 µg/mL (≈ 64.2 µM) and an inhibition at 15 µg/mL (Lemna minor; [2]) of 54%. It also gave a mortality at 50 µg/mL (Daphnia magna; Daphnia magna) of 52% and an EC50 (Daphnia magna; [4]) of 50.1 µg/mL (≈ 243 µM).
